Values joined by “and” are separate entries in the source; they are usually repeats but may differ in a detail not shown here. Equal values may be shown once.
What was measured:
hM4Di = target: T1, hM4Di (Homo sapiens, UniProt P08173, A203G/Y113C); experiment: [18F]JHU37107 PET in a monkey expressing hM4Di in the right amygdala; assay type: in vivo, rhesus monkey (Macaca mulatta); parameters: expressed in transfected cells; host or cells: rhesus monkey (Macaca mulatta) right amygdala, lentivirus-transduced neurons; details: mean
T1 sequence (P08173 1-479 Y113C/A203G): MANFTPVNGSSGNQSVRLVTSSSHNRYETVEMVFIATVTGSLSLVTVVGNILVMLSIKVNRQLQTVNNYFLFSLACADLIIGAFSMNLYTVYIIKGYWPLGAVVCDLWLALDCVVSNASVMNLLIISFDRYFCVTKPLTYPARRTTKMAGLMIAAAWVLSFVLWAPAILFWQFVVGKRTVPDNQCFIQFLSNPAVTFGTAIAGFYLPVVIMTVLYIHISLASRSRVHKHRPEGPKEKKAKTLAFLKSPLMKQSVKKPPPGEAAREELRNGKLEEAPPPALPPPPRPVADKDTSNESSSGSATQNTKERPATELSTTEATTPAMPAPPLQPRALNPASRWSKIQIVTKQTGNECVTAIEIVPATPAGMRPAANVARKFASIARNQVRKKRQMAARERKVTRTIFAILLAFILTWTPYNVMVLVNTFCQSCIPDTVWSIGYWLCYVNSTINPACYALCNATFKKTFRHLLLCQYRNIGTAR
Experimental: Lentivirus expressing an hM4Di-CFP fusion protein under an hSyn promoter[11] with a titer of >10^9 infectious particles was loaded into a 100 µL glass syringe (Hamilton Co., MA). The 31-gauge needle of the syringe was sheathed with a silica capillary (450 µm OD) to create a step 1 mm from the base of the aperture. The syringe was mounted in a Nanomite pump (Harvard Apparatus, Cambridge, MA). The needle was lowered through the incision in the dura mater to each of the pre-calculated target sites and 10 or 20 µL was infused at a rate of 1 µL min^−1. Each monkey received a total of between 10 and 12 injections (for a total injection volume of 120–240 µL). Post-infusion, the needle was left in situ for 10 min after each injection to allow pressure from the infusate to dissipate. The needle was then slowly removed. At the completion of the injection series the soft tissues were sutured together in anatomical layers.
(§1) [^18F]JHU37107 was prepared via the no-carrier-added ^18F-fluorination using an FDG Nuclear Interface module (Muenster, Germany). Briefly, 4 mg precursor (8-chloro-11-(4-ethylpiperazin-1-yl)-5H-dibenzo[b,e][1,4]diazepin-2-ol) and 8 mg tris(acetonitrile)cyclopentadienylruthenium(II)hexafluorophosphate (STREM, Boston, MA) were dissolved in ethanol (0.3 mL), the solution was heated at 85 °C for 25 min and evaporated to dryness under a stream of argon gas. The residue was dissolved in DMSO (0.5 mL) and acetonitrile (0.5 mL) and the solution was added to a dry complex of [^18F]fluoride and 9 mg 1,3-bis(2,6-di-i-propylphenyl)-2-chloroimidazolium chloride (STREM). The reaction mixture was heated at 130 °C for 30 min, diluted with mixture of 0.5 mL acetonitrile, 0.5 mL water and 0.03 mL TFA and injected onto a semi-preparative HPLC column (Luna C18, 10 micron, 10 mm × 250 mm) and eluted with 23:77 (v:v) acetonitrile:water (0.1% trifluoroacetic acid) at a flow rate of 10 mL min^−1. The radioactive peak corresponding to [^18F]JHU37107 (tR = 9.9 min) was collected in a reservoir containing 50 mL of water and 3 mL aq 8.4% NaHCO3 solution. The diluted product was loaded onto a solid phase extraction cartridge (Waters Oasis HLB plus light) and rinsed with 10 mL sterile saline. The product was eluted with 1000 µL of ethanol through a sterile 0.2 μm filter into a sterile, pyrogen-free vial and 10 mL saline was added through the same filter. The final product [^18F]JHU37107 was then analyzed by analytical HPLC (Luna C18, 10 micron, 4.6 mm × 250 mm; mobile phase 23:77 (v:v) acetonitrile:water (0.1% trifluoroacetic acid), flow rate of 3 mL min^−1; tR = 6.4 min) using a UV detector at 254 nm to determine the radiochemical purity (>95%) and specific radioactivity (152–188 GBq μmol^−1 (4100–5070 mCi μmol^−1)) at the time synthesis ended.
All macaque studies were acquired dynamically on the Focus 220 PET scanner (Siemens Medical Solutions, Knoxville, TN). The Focus 220 is a dedicated pre-clinical scanner with a transaxial FOV of 19 cm and an axial FOV of 7.5 cm. Image resolution is <2 mm within the central 5 cm FOV.
After initial evaluation the monkey was sedated with ketamine (10 mg kg^−1) followed by ketoprofen (as an analgesic) and glycopyrrolate (for salvia reduction), all weight dependent IM injections. The monkey would then be placed in the supine position, intubated with a tracheal tube. […] The monkey was always monitored while anesthetized. […]

DREADDs = experiment: [18F]JHU37107 PET in D1-DREADD transgenic mice; assay type: in vivo
Experimental: as §1, with “[…] .” for “tR = 6.4 min) using a UV detector at 254 nm to determine the radiochemical purity (>95%) and specific radioactivity (152–188 GBq μmol^−1 (4100–5070 mCi μmol^−1)) at the time synthesis ended.”
Total acquisition time was 60 min.

CCN1CCN(C2=Nc3cc(Cl)ccc3Nc3ccc([18F])cc32)CC1 [[18F]JHU37107]
PET binding value, PFC mean (Figure 4, second Panel l) (hM4Di; PFC): 1.094
PET binding value, PUT mean (Figure 4, second Panel l) (hM4Di; PUT): 1.196
PET binding value, hM4Di mean (Figure 4, second Panel l) (hM4Di; hM4Di region): 2.423
PET binding value, CB (Figure 4 Panel D, first group) (DREADDs; CB, individual values): 0.271 and 0.3157
PET binding value, CB (Figure 4 Panel D, second group) (DREADDs; CB, individual values): 0.004 and 0.238
PET binding value, CB (Figure 4 Panel D, third group) (DREADDs; CB, individual values): 0.02536 and 0.05718 and 0.04755
PET binding value, CTX (Figure 4 Panel D, first group) (DREADDs; CTX, individual values): 0.3049 and 0.3358
PET binding value, CTX (Figure 4 Panel D, second group) (DREADDs; CTX, individual values): 0.244 and 0.22
PET binding value, CTX (Figure 4 Panel D, third group) (DREADDs; CTX, individual values): 0.4367 and 0.4206 and 0.3996
PET binding value, baseline (Figure 4 Panel D) (DREADDs; first line (values equal the STR values of the third group)): 1.736 and 1.664 and 1.424 and 1.7038 and 1.723 and 1.422
PET binding value, baseline (Figure 4 Panel D) (DREADDs; second line (values equal the CTX values of the third group)): 0.4367 and 0.4206 and 0.3996
PET binding value, blocked (Figure 4 Panel D) (DREADDs; first line (STR by position)): 0.6764 and 0.9438 and 0.6607 and 0.8306
PET binding value, blocked (Figure 4 Panel D) (DREADDs; second line (CTX by position)): 0.2742 and 0.4049
PET binding value, blocked (Figure 4 Panel D) (DREADDs; third line (CB by position)): 0.2463 and 0.2748

Reference: paper PMC6788984, “High-potency ligands for DREADD imaging and activation in rodents and monkeys” (Nature Communications, 2019)
